Measurements published in patent US5468727A, “Methods of normalizing metabolic parameters in diabetics” (Board of Regents, The University of Texas System, priority 1993, dated 1995).

Tests used:
[1] = test system: obese diabetic Zucker rats; test: Gastric emptying by gamma scintigraphy with camostat, diabetic rats; type: in vivo; details: diabetic Zucker rats 10 wks old, 1% camostat in 30% glucose solution by gavage; without 38.4±18 min
Experimental: (§1) Eight male obese Zucker rats of a strain that becomes diabetic by 10 wks of age and 8 matched lean Zucker rats as controls were studied. After overnight fast, rats 10 wks old were fed by gavage a 30% glucose solution ([…] body weight) containing 150 μCi of ^99m Tc-SC. Each rat was tested with and without 1% camostat, a trypsin inhibitor known to stimulate CCK release, in the glucose solution. Gastric emptying was monitored by gamma scintigraphy at 10 min intervals. Fasting and 1 hr postprandial plasma glucose were determined.

lean Zucker rats = test: Gastric emptying by gamma scintigraphy with camostat, lean rats; type: in vivo; details: lean Zucker rats 10 wks old, 1% camostat in 30% glucose solution by gavage; without 65.1±5.7 min
Experimental: as §1

[2] = test system: obese diabetic Zucker rats; test: Fasting and 1 hr postprandial plasma glucose with camostat, diabetic rats; type: in vivo; details: fasting to 1 hr postprandial, 1% camostat in 30% glucose solution, without Camostat 270-±18 mg/dl
Experimental: as §1

[3] = test system: subjects with early NIDDM; test: Gastric emptying study (gamma camera, 99mTc-SC glucose solution) with CCK-8 infusion; type: in vivo, human
From the text: Seven subjects with early NIDDM (diagnosed for less than 2 years) underwent two separate gastric emptying studies. Subjects were five men and two women ranging in age from 33 to 49 and previously diagnosed as diabetic according to current WHO criteria using a 75 g glucose tolerance test (OGTT) with blood sampled fasting and at 2 hr. All patients had been on oral hypoglycemic medication which was discontinued the evening prior to the study. All studies were begun between 7-8 am following a 12 hour fast.
An 18 gauge angiocatheter was placed in one antecubital fossa for blood drawing while another 18 gauge angiocatheter was placed in the other antecubital fossa for a 0.9% (normal saline) infusion ([…]). Gastric emptying studies utilizing a gamma camera (Scintronix USA, Inc., Woburn Mass.) were performed with a modified 0.62M (50 g glucose in 450 ml water) glucose solution. This solution has been used previously in gastric emptying studies (Schwartz, et al., 1990). […]
The subjects were then seated at a 90 degree angle in front of a gamma camera. […] Counts in the stomach region of interest were calculated in each 60 second image. After correcting for radioactive decay, the count rates were converted to a percentage of the maximum count rate recorded. […]

[4] = test system: subjects with early NIDDM; test: Plasma glucose after glucose solution with CCK-8 infusion; type: in vivo, human; details: iv CCK-8 infusion
Experimental: (§2) Blood samples were drawn from the indwelling 18 gauge angiocatheter in the antecubital fossa at 15 min intervals beginning just prior to ingestion of the glucose solution and ending at 120 min. Blood for glucose evaluation was collected in grey-top vacutainer tubes containing potassium oxalate and sodium fluoride. Blood for insulin and C-peptide was collected in red top tubes. Samples for hemoglobin A-1-C, gastric inhibitory polypeptide (GIP) and CCK were collected in lavender top tubes containing EDTA. All glass tubes were from Becton Dickinson Vacutainer Systems, Rutherford, N.J. Glucose analysis were performed on a Paramax instrument (Baxter Healthcare Corp., Irvine, Calif.). Hemoglobin A1C was performed by the micro column test (Bio-Rad, Hercules, Calif. 94547).
(§3) The second study was performed 3 days later. Subjects drank the glucose solution and a gastric emptying study was performed with simultaneous infusion of CCK (Kinevac™, Squibb Diagnostics Princeton, N.J. 08543) at 48 pM/kg/hr.
Infusions of the saline solution for the first test and the CCK solution for the second test were begun 10 min prior to ingestion of the glucose solution.

[5] = test system: subjects with early NIDDM; test: Plasma GIP by radioimmunoassay with CCK-8 infusion; type: in vivo, human; details: iv CCK-8 infusion; without CCK-8 420.4 pg/ml; P=0.0032
Experimental: as §2
(§4) The C-peptide assay was performed by Smith Kline Bioscience Laboratories, Van Nuys, Calif. by radioimmunoassay (Diagnostic Products, Los Angeles, Calif. 90045). The assay for insulin was performed by Smith Kline Bioscience Laboratory, St. Louis, Mo. by radioimmunoassay (Pharmacia Diagnostics, Fairfield, N.J. 07004). Assays for GIP and CCK were performed by radioimmunoassay by the Gastroenterology Unit at Mayo Clinic (Rochester, Minn. 55905) using in-house kits.
(§5) The second study was performed 3 days later. […]

[6] = test system: subjects with early NIDDM; test: Serum insulin by radioimmunoassay with CCK-8 infusion; type: in vivo, human; details: iv CCK-8 infusion
Experimental: as §2, §4, §5

[7] = Plasma CCK by radioimmunoassay with CCK-8 infusion; type: in vivo, human; details: during iv CCK-8 infusion; without CCK-8 20.8 pmol/L; P=0.0247
Experimental: as §2, §4, §5

[8] = test system: subjects with early NIDDM; test: Adverse effects during CCK-8 infusion; type: in vivo, human; details: iv CCK-8 infusion, 2 hr
Experimental: as §3
None of the subjects reported any nausea or abdominal distress during the CCK-8 infusions.

SMILES | gastric half-emptying time [1] [min] | gastric half-emptying time (lean Zucker rats) [min] | incremental increase in plasma glucose [2] [mg/dL] | gastric half-emptying time ([3]; average, 7 early NIDDM subjects, iv CCK infusion 48 pM/kg/hr, 50 g glucose in 450 ml, without CCK-8 40.9 min, P=0.0042) [min] | average area under the gastric emptying curve during the 2-hr period, relative to the same patients not receiving CCK-8 ([3]; iv CCK-8 infusion, early NIDDM subjects, 2 hr) [%] | average glucose excursion value during the 2-hr period, relative to saline infusion ([4]; 2 hr) [%] | average glucose excursion value during the 2-hr period ([4]; saline 5.6 mmol/liter, P=0.0550) [mmol/L] | average glucose concentration during the 2-hr period following the glucose meal ([4]; saline infusion 17.1, P=0.0073) [mmol/L] | average GIP excursion over the 2 hr period [5] [pg/mL] | average insulin concentration over the 2 hr period, relative to saline infusion ([6]; not statistically significant) [%] | average insulin concentration over the 2 hr period ([6]; without CCK-8 44.2 μU/ml, P=0.1480) [μU/ml] | average plasma CCK-8 excursion [7] [pmol/L] | adverse effects (nausea, abdominal distress) during infusion [8]
CN(C)C(=O)COC(=O)Cc1ccc(OC(=O)c2ccc(NC(=N)N)cc2)cc1 [Camostat] | 141 ± 33 | 167 ± 25 | 160 ± 15 | – | – | – | – | – | – | – | – | – | –
CSCC[C@H](NC(=O)[C@H](Cc1ccc(OS(=O)(=O)O)cc1)NC(=O)[C@@H](N)CC(=O)O)C(=O)NCC(=O)N[C@@H](Cc1c[nH]c2ccccc12)C(=O)N[C@@H](CCSC)C(=O)N[C@@H](CC(=O)O)C(=O)N[C@@H](Cc1ccccc1)C(N)=O [CCK-8, Cholecystokinin-octapeptide] | – | – | – | 94.2 | 175 | 66 | 3.7 | 14.0 | 266.4 | 68 | 30.2 | 49.6 | No adverse effects were reported or observed
